Assay results: paper PMC6736568, “Discovery of Novel Anti-cryptosporidial Activities From Natural Products by in vitro High-Throughput Phenotypic Screening” (Frontiers in Microbiology, 2019)
Where two headings read alike, the source gives them in different places.

Columns and labels:
Cryptosporidium parvum = experiment: qRT-PCR assay of the growth of C. parvum in vitro in HCT-8 host cells (primary and secondary screening, EC50); assay type: cell-based; settings: for Inhibition (%): primary screening at 10 uM; for % Inhibition (3.3 uM): secondary screening at 3.3 uM
[1] = primary screening at 10 uM, from Hs18S ΔCT
[2] = primary screening at 10 uM, treated vs control

CC1=CC2C(C(C)C)CCC(C)(O)C2CC1 (centres unmarked) [CADIN-4-EN-10-OL]
Inhibition (%) (Cryptosporidium parvum): -28.21% | Cytotoxicity (%) (HCT-8 host cells (Hs18S); [1]): -34.1% | Hs18S ΔCT (HCT-8 host cells (Hs18S); [2]): -0.42

CC1=C(/C=C/C(C)=C/C=C/C(C)=C/C=C/C=C(C)/C=C/C=C(C)/C=C/C2=C(C)C(=O)CCC2(C)C)C(C)(C)CCC1=O [CANTHAXANTHIN, CANTHAXANTHIN (euglenanone)]
Inhibition (%) (Cryptosporidium parvum): 52.72% | Cytotoxicity (%) (HCT-8 host cells (Hs18S); 10 µM): -19.8%

C[N+](C)(C)CC(O)CC(=O)O.[Cl-] (stereo not drawn) [CARNITINE (dl) HYDROCHLORIDE]
Inhibition (%) (Cryptosporidium parvum): -3.41% | Cytotoxicity (%) (HCT-8 host cells (Hs18S); [1]): -73.4% | Hs18S ΔCT (HCT-8 host cells (Hs18S); [2]): -0.79

OC[C@H]1O[C@@H](O[C@H]2[C@H](O)[C@@H](O)[C@H](O)O[C@@H]2CO)[C@H](O)[C@@H](O)[C@@H]1O [CELLOBIOSE (D[+])]
Inhibition (%) (Cryptosporidium parvum): -5.56% | Hs18S ΔCT (HCT-8 host cells (Hs18S); [2]): 0.91

CC(C)CCC[C@@H](C)[C@H]1CC[C@H]2[C@@H]3CC[C@H]4CCCC[C@]4(C)[C@H]3CC[C@]12C [CHOLESTANE]
Inhibition (%) (Cryptosporidium parvum): 13.94% | Cytotoxicity (%) (HCT-8 host cells (Hs18S); [1]): 12.2% | Hs18S ΔCT (HCT-8 host cells (Hs18S); [2]): 0.19

CC(=O)O[C@H]1CC[C@@]2(C)C(=CC[C@H]3[C@@H]4CC[C@H]([C@H](C)CCCC(C)C)[C@@]4(C)CC[C@@H]32)C1 [CHOLESTERYL ACETATE]
Inhibition (%) (Cryptosporidium parvum): -22.86% | Cytotoxicity (%) (HCT-8 host cells (Hs18S); [1]): -5.8% | Hs18S ΔCT (HCT-8 host cells (Hs18S); [2]): -0.08

CC(C)CCC[C@@H](C)[C@H]1CC[C@H]2[C@@H]3CC=C4C[C@@H](OC(=O)c5ccccc5)CC[C@]4(C)[C@H]3CC[C@]12C [CHOLESTERYL BENZOATE]
Inhibition (%) (Cryptosporidium parvum): -14.05% | Cytotoxicity (%) (HCT-8 host cells (Hs18S); [1]): 5.3% | Hs18S ΔCT (HCT-8 host cells (Hs18S); [2]): 0.08

C[N+](C)(C)CCO.[Cl-] [CHOLINE CHLORIDE]
Inhibition (%) (Cryptosporidium parvum): 20.98% | Hs18S ΔCT (HCT-8 host cells (Hs18S)): 0.33 | Cytotoxicity (%) (HCT-8 host cells (Hs18S); 10 µM): 20.6

C[C@H](CC(=O)[C@@H]1OC1(C)C)[C@H]1C(=O)C[C@@]2(C)C3=CC[C@H]4C(C)(C)[C@@H](O[C@@H]5OC[C@@H](O)[C@H](O)[C@H]5O)CC[C@@]45C[C@@]35[C@@H](O)C[C@]12C [CIMICIFUGOSIDE H1]
Inhibition (%) (Cryptosporidium parvum): 58.34% | Cytotoxicity (%) (HCT-8 host cells (Hs18S); [1]): 69.4% | Hs18S ΔCT (HCT-8 host cells (Hs18S); [2]): 1.71

COc1cc2cc3c4cc(OC)c(OC)cc4cc[n+]3c(C)c2cc1OC.[Cl-] [CORALYNE CHLORIDE]
Inhibition (%) (Cryptosporidium parvum): -5.22% | Cytotoxicity (%) (HCT-8 host cells (Hs18S); [1]): -23.6% | Hs18S ΔCT (HCT-8 host cells (Hs18S); [2]): -0.31

C[C@]12CCC(=O)C=C1CC[C@@H]1[C@@H]2C(=O)C[C@@]2(C)[C@H]1CC[C@]2(O)C(=O)CO [CORTISONE]
Inhibition (%) (Cryptosporidium parvum): -10.93% | Hs18S ΔCT (HCT-8 host cells (Hs18S); [2]): -0.17

COC(=O)[C@H]1[C@H]2C[C@H]3c4[nH]c5ccccc5c4CCN3C[C@@H]2CC[C@@H]1O [CORYNANTHINE]
Inhibition (%) (Cryptosporidium parvum): -58.95% | Cytotoxicity (%) (HCT-8 host cells (Hs18S); [1]): -53.1% | Hs18S ΔCT (HCT-8 host cells (Hs18S); [2]): -0.61

N[C@@H]1CONC1=O [CYCLOSERINE (D)]
Inhibition (%) (Cryptosporidium parvum): -10.45% | Cytotoxicity (%) (HCT-8 host cells (Hs18S); [1]): -30.0% | Hs18S ΔCT (HCT-8 host cells (Hs18S); [2]): -0.38

COc1cc2c(cc1OC)Cc1cc(OC)c(OC)cc1Cc1cc(OC)c(OC)cc1C2 [CYCLOVERATRYLENE]
Inhibition (%) (Cryptosporidium parvum): 83.81% | % Inhibition (3.3 uM) (Cryptosporidium parvum): -85% | Cytotoxicity (%) (HCT-8 host cells (Hs18S); [1]): -2.2% | Hs18S ΔCT (HCT-8 host cells (Hs18S); [2]): -0.03

OC[C@H]1O[C@H](O[C@H]2[C@H](O)[C@@H](O)[C@H](O)O[C@@H]2CO)[C@H](O)[C@@H](O)[C@@H]1O [D-(+)-MALTOSE]
Inhibition (%) (Cryptosporidium parvum): 55.12% | Hs18S ΔCT (HCT-8 host cells (Hs18S); [2]): -0.19

COc1ccc(-c2cc(=O)c3c(O)c(OC)c(OC)c(OC)c3o2)cc1OC [DEMETHYLNOBILETIN]
Inhibition (%) (Cryptosporidium parvum): 91.41% | % Inhibition (3.3 uM) (Cryptosporidium parvum): 29% | Cytotoxicity (%) (HCT-8 host cells (Hs18S); [1]): -4.6% | Hs18S ΔCT (HCT-8 host cells (Hs18S); [2]): -0.06

CC(=O)O[C@@H]1C[C@H]2C(C)(C)C(=O)C=C[C@]2(C)[C@H]2CC[C@]3(C)C(=CC(=O)O[C@H]3c3ccoc3)[C@@]21C [DEOXYGEDUNIN]
Inhibition (%) (Cryptosporidium parvum): 28.62% | Cytotoxicity (%) (HCT-8 host cells (Hs18S); [1]): 15.4% | Hs18S ΔCT (HCT-8 host cells (Hs18S); [2]): 0.24

CC(=O)O[C@H]1C[C@@H](OC(C)=O)C(C)(C)[C@@H]2C[C@@H](OC(C)=O)[C@@]3(C)C4=CC(=O)O[C@@H](c5ccoc5)[C@]4(C)CC[C@@H]3[C@@]12C [DEOXYKHIVORIN]
Inhibition (%) (Cryptosporidium parvum): 27.34% | Cytotoxicity (%) (HCT-8 host cells (Hs18S); [1]): 7.7% | Hs18S ΔCT (HCT-8 host cells (Hs18S); [2]): 0.11

Cl.c1ccc2c(c1)CN1CCCC1=N2 [DEOXYPEGANINE HYDROCHLORIDE]
Inhibition (%) (Cryptosporidium parvum): 36.29% | Hs18S ΔCT (HCT-8 host cells (Hs18S)): -0.06 | Cytotoxicity (%) (HCT-8 host cells (Hs18S); 10 µM): -4.6

C=C[C@@]1(C)CC(=O)[C@@]2(O)[C@](C)(O1)[C@@H](O)[C@@H](O)C1C(C)(C)CC[C@H](O)[C@@]12C (some centres unmarked) [DESACETYLCOLFORSIN]
Inhibition (%) (Cryptosporidium parvum): -6.53% | Cytotoxicity (%) (HCT-8 host cells (Hs18S); [1]): 14.3% | Hs18S ΔCT (HCT-8 host cells (Hs18S); [2]): 0.22

CC(=O)[C@H]1CC[C@H]2[C@@H]3CCC4C[C@H](O)CC[C@]4(C)[C@H]3C[C@H](O)[C@]12C (stereo partly drawn) [DIHYDROXY (3alpha,12alpha)PREGNAN-20-ONE]
Inhibition (%) (Cryptosporidium parvum): -32.59% | Cytotoxicity (%) (HCT-8 host cells (Hs18S); [1]): -29.0% | Hs18S ΔCT (HCT-8 host cells (Hs18S); [2]): -0.37

COC(=O)/C(C)=C\CC12OC(C)(C)C3CC(C=C4C(=O)c5c(c(CCC(C)(C)Cl)c6c(c5OC)C5CC(C)(CCC5=C(C)C)O6)OC431)C2=O (centres unmarked) [DIMETHYL GAMBOGINATE]
Inhibition (%) (Cryptosporidium parvum): 93.45% | % Inhibition (3.3 uM) (Cryptosporidium parvum): 47% | Cytotoxicity (%) (HCT-8 host cells (Hs18S); [1]): 79.7% | Hs18S ΔCT (HCT-8 host cells (Hs18S); [2]): 2.30

CS(C)(=O)=O [DIMETHYLSULFONE]
Inhibition (%) (Cryptosporidium parvum): 65.78% | % Inhibition (3.3 uM) (Cryptosporidium parvum): 61% | Cytotoxicity (%) (HCT-8 host cells (Hs18S); [1]): 46.5% | Hs18S ΔCT (HCT-8 host cells (Hs18S); [2]): 0.90

N[C@@H](CSCSC[C@H](N)C(=O)O)C(=O)O [DJENKOLIC ACID]
Inhibition (%) (Cryptosporidium parvum): 23.33% | Cytotoxicity (%) (HCT-8 host cells (Hs18S); [1]): 0.2% | Hs18S ΔCT (HCT-8 host cells (Hs18S); [2]): 0.00

C[C@]12CC[C@H](O)C[C@@H]1CC[C@@H]1[C@@H]2CC[C@]2(C)C(=O)CC[C@@H]12 [EPIANDROSTERONE]
inhibition at 10 µM (Cryptosporidium parvum; Cryptosporidium parvum, HCT-8): -36% | Hs18S ΔCT (HCT-8 host cells (Hs18S)): -0.05

O=C(O[C@@H]1Cc2c(O)cc(O)cc2O[C@@H]1c1ccc(O)c(O)c1)c1cc(O)c(O)c(O)c1 [EPICATECHIN MONOGALLATE]
Inhibition (%) (Cryptosporidium parvum): 6.24% | Cytotoxicity (%) (HCT-8 host cells (Hs18S); [1]): 23.1% | Hs18S ΔCT (HCT-8 host cells (Hs18S); [2]): 0.38

O=C(O[C@@H]1Cc2c(O)cc(O)cc2O[C@@H]1c1cc(O)c(O)c(O)c1)c1cc(O)c(O)c(O)c1 [EPIGALLOCATECHIN-3-MONOGALLATE]
Inhibition (%) (Cryptosporidium parvum): 10.02% | Cytotoxicity (%) (HCT-8 host cells (Hs18S); [1]): -14.2% | Hs18S ΔCT (HCT-8 host cells (Hs18S); [2]): -0.19
